# From patent US5977442A, “Salicylic acid induced map kinase and its use for enhanced disease resistance in plants” (priority 1997, dated 1999)
# What was measured:
# [1] = test system: 44 kDa kinase; experiment: Activation of 44 kDa kinase in tobacco leaves; format: in vivo, N. tabacum cv Xanthi nc; settings: SA treatment of tobacco plants
# Experimental: (§1) Tobacco plants (N. tabacum cv Xanthi nc) were grown at 22° C. in a growth room programmed for a 14-hr light cycle. Plants approximately 7-8 weeks old were used for experiments. For temperature-shift experiments, plants were transferred to a 32° C. chamber one day before inoculation. TMV strain U1 was used at a concentration of 1 μg/mL in 50 mM phosphate buffer, pH 7.0; mock inoculation was done with buffer only. After 48 hours infected plants were shifted back to 22° C. and leaf discs (1 cm in diameter) were taken at the indicated times. For water or SA treatment, one leaf from each plant was injected with solution using a syringe until the entire leaf was infiltrated.
# [2] = test system: p48 SIP kinase; experiment: In-gel kinase activity assay (MBP substrate) in extracts of treated tobacco suspension cells: activation of p48 SIP kinase; format: cell-based, Nicotiana tabacum cv Xanthi nc
# Experimental: (§2) The cell suspension culture was derived from callus tissue originated from leaves of Nicotiana tabacum cv Xanthi nc and grown in MS medium supplemented with 1 mg/L α-naphthaleneacetic acid, 0.1 mg/L 2,4-dichlorophenoxyacetic acid, 0.1 mg/L benzyladenine, and 3% sucrose. Log phase cells were used three days after a 1:10 dilution. Treatment with H2 O2, SA and its analogues was performed in the original flasks in the dark to avoid any stresses associated with transfer. At various times, 10 mL cells (approximately 0.2 to 0.3 g fresh weight of cells) were harvested by filtration. The cells were quickly frozen in liquid nitrogen and stored at -80° C. until analysis.
# Leaf discs were first ground to a fine powder in 1.5 ml microcentrifuge tubes using small plastic pestles. After adding 0.25 mL extraction buffer (100 mM Hepes, pH 7.5, 5 mM EDTA, 5 mM EGTA, 10 mM DTT, 10 mM Na3 VO4, 10 mM NaF, 50 mM β-glycerolphosphate, 1 mM phenylmethylsulfonyl fluoride, 5 μg/mL antipain, 5 μg/mL aprotinin, 5 μg/mL leupeptin, 10% glycerol, 7.5% polyvinylpolypyrrolidone), the mixture was sonicated for 15 seconds with a W-375 Sonicator (Heat System-Ultrasonics, Inc., N.Y.) fitted with a microprobe at setting 4 and 80% duty cycle. To prepare extracts from treated cells, cells were mixed with two volumes (w/v) of extraction buffer and were then sonicated twice for 15 seconds each in 1.5 mL microcentrifuge tube. After centrifugation at 13,000 rpm for 20 minutes, supernatants were transferred into clean tubes, quickly frozen in liquid nitrogen and stored at -80° C.
# The in-gel kinase assay was performed as described previously (Zhang et al., 1993). Extracts containing 10 μg protein were electrophoresed on 10% SDS-polyacrylamide gels imbedded with either 1 mg/mL of casein, 1 mg/mL histone (Type III-SS, Sigma, MO), 1 mg/mL BSA, or 0.25 mg/mL of MBP in the separating gel as substrate for the kinase. After electrophoresis, SDS was removed by washing the gel with washing buffer (25 mM Tris, pH 7.5, 0.5 mM DTT, 0.1 mM Na3 VO4, 5 mM NaF, 0.5 mg/mL BSA, 0.1% Triton X-100 [v/v]). The buffer was changed three times, each for 30 minutes at room temperature. The kinases were allowed to renature in 25 mM Tris, pH 7.5, 1 mM DTT, 0.1 mM Na3 VO4, 5 mM NaF at 4° C. overnight with three changes of buffer. The gel was then incubated at room temperature in 30 mL reaction buffer (25 mM Tris, pH 7.5, 2 mM EGTA, 12 mM MgCl2, 1 mM DTT, 0.1 mM Na3 VO4) with 200 nM ATP plus 50 μCi γ-^32 P-ATP (3000 Ci/mmole) for 60 minutes. The reaction was stopped by transferring the gel into 5% TCA (w/v)/1% NaPPi (w/v). The unincorporated γ-^32 P-ATP was removed by washing in the same solution for at least 6 hours with 5 changes of buffer. The gel was dried onto 3 MM paper and exposed to Kodak XAR-5 film. Prestained size markers (Bio-Rad, CA) were used to calculate the size of the kinases. Quantitation of the relative kinase activities were done using a phosphoimager (Molecular Dynamics Inc., CA).
# [3] = test system: p48 SIP kinase; experiment: Activation of p48 SIP kinase in tobacco leaves after injection; format: in vivo, N. tabacum cv Xanthi nc
# Experimental: as §1
# [4] = test system: the two major H2 O2 -scavenging enzymes; settings: Chen et al., 1993; Durner and Klessig, 1995; cited from earlier work
# [5] = test system: phosphotyrosine-containing 48 kDa protein; experiment: Immunoblot analysis with anti-phosphotyrosine antibody 4G10 of treated cell extracts; format: cell-based, Nicotiana tabacum cv Xanthi nc; settings: 250 μM SA or 2 mM H2 O2; FIG. 4A
# Experimental: as §2
# (§3) Protein extracts were separated by SDS-PAGE on 10% acrylamide gels, and the proteins were transferred to nitrocellulose membrane by semidry electroblotting. The membrane was blocked for 2 hours in TBS buffer (20 mM Tris, pH 7.5, 150 mM NaCl, 0.1% Tween 20, 0.1 mM Na3 VO4) with 10% BSA at room temperature, and then incubated with the phosphotyrosine-specific monoclonal antibody 4G10 (Upstate Biotechnology Incorporated, NY) in TBS buffer with BSA for 1 hr. After the blot was incubated with horseradish peroxidase-conjugated secondary antibody, the complexes were visualized using an enhanced chemiluminescence kit (DuPont, MA) following the manufacture's instructions.
# [6] = test system: kinase activities in extracts from SA-treated cells (casein, histone, or BSA as substrate); experiment: In-gel kinase activity assay with casein, histone or BSA as substrate in extracts of treated tobacco suspension cells; format: cell-based, Nicotiana tabacum cv Xanthi nc
# [7] = test system: TMV; settings: Dunigan et al., 1995; cited from earlier work
# [8] = test system: PR-1 gene expression; settings: Conrath et al., 1997; cited from earlier work
# [9] = test system: p48 SIP kinase; experiment: Treatment of p48 SIP kinase with phosphatases; format: biochemical, tobacco; settings: okadaic acid against PP1; Na3 VO4 against YOP
# Experimental: FIG. 13 is a histogram showing inactivation of p48 SIP kinase by phosphatase treatment. Approximately 20 units of the SIP kinase was treated with either the serine/threonine-specific phosphatase PPI (0.1 units) or the tyrosine-specific protein phosphatase YOP (0.5 units) for 10 min (bars 2 to 5) or 30 min (bars 7 to 10) at 30° C. in the presence or absence of a phosphatase inhibitor. Bars 1 and 6 represent the control without phosphatase or phosphatase inhibitor; bars 2 and 7, PPI; bars 3 and 8, PPI plus okadaic acid (1 μM); bars 4 and 9, YOP; bars 5 and 10, YOP plus Na3 VO4 (1 mM). Before assaying for SIP kinase activity, the phosphatase inhibitors were added to all of the reactions to the same final concentrations.
# The phosphatase inhibitors present in the purified p48 SIP kinase preparation were first removed by dialysis against buffer B lacking β-glycerophosphate and Na3 VO4 in a 0.5-mL 10 K dialysis cassette (Slide-A-Lyzer; Pierce). For treatment with serine/threonine protein phosphatase PP1 (Calbiochem, San Diego, Calif.), MnCl2, DTT, and BSA were added to aliquots of the SIP kinase preparation to final concentrations of 200 μm, 5 mM and 100 μg/mL respectively. Then 0.1 unit of PP1 was added, and the reaction mixture was incubated at 30° C. in the presence or absence of 1 μM of the phosphatase inhibitor okadaic acid (Calbiochem). […]
# [10] = test system: 200 kDa and 75 kDa kinase activity bands; settings: long exposure of autoradiogram
# Experimental: as §2
# The in-gel kinase assay was performed as described previously (Zhang et al., 1993). Extracts containing 10 μg protein were electrophoresed on 10% SDS-polyacrylamide gels imbedded with either 1 mg/mL of casein, 1 mg/mL histone (Type III-SS, Sigma, MO), 1 mg/mL BSA, or 0.25 mg/mL of MBP in the separating gel as substrate for the kinase. After electrophoresis, SDS was removed by washing the gel with washing buffer (25 mM Tris, pH 7.5, 0.5 mM DTT, 0.1 mM Na3 VO4, 5 mM NaF, 0.5 mg/mL BSA, 0.1% Triton X-100 [v/v]). The buffer was changed three times, each for 30 minutes at room temperature. […] Quantitation of the relative kinase activities were done using a phosphoimager (Molecular Dynamics Inc., CA).
# [11] = test system: 58 kDa, 52 kDa, and 40 kDa kinases; settings: 1 mM and 2 mM
# Experimental: as §2
# Leaf discs were first ground to a fine powder in 1.5 ml microcentrifuge tubes using small plastic pestles. […]
# The in-gel kinase assay was performed as described previously (Zhang et al., 1993). […] Quantitation of the relative kinase activities were done using a phosphoimager (Molecular Dynamics Inc., CA).
# [12] = test system: tyrosine-phosphorylated proteins; settings: in response to H2 O2
# Experimental: as §2, §3
# [13] = target: myelin basic protein (MBP)
# [14] = test system: p48 SIP kinase (precipitation by 4G10 antibody); experiment: Immunoprecipitation-kinase activity assay with 4G10 antibody and phospho-amino acid competitors; format: binding, Nicotiana tabacum cv Xanthi nc; settings: 1 mM competitor
# Experimental: About 25 μL packed volume of protein A-agarose was added, and the incubation was continued for another 2 hours. Agarose bead-protein complexes were pelleted by brief centrifugation. After washing with immunoprecipitation buffer three times, 1× SDS sample buffer was added and the sample boiled for 3 minutes. After centrifugation, the supernatant fraction was electrophoresed on 10% SDS-PAGE gel, and the in-gel kinase assay was performed.
compound,measurement,setting,value
"O=C(O)c1ccccc1O [SA, salicylic acid]",activation of p44 kinase,[1],also evident after SA treatment of tobacco plants
same,time to peak of p48 SIP kinase activation,"[2]; 250 μM SA, tobacco suspension cells",≤ 5 min
same,activation of 48 kDa (p48 SIP) kinase,"[2]; 250 μM, tobacco suspension cells, MBP substrate",activated a 48 kDa kinase
same,reactivation of SIP kinase by second addition of SA,[2]; second addition up to 4 hr after initial treatment,did not reactivate the SIP kinase
same,minimum concentration of SA required to activate p48 kinase,[2]; tobacco suspension cells,100 µM
same,concentration at which maximum p48 kinase activity obtained,"[2]; tobacco suspension cells, FIG. 1E",500 µM
same,activation of p48 SIP kinase by second injection,"[3]; leaves first injected with water, then SA",dramatic activation of the p48 SIP kinase
same,"activation of kinase in leaves, first (rapid) peak: return to basal level",[3]; single injection 500 μM SA,about 30 minutes
same,"time of second, more prolonged peak of kinase activation",[3]; single injection 500 μM SA,approximately 3 hours
same,inhibition of the two major H2O2-scavenging enzymes,[4],can inhibit the two major H2 O2 -scavenging enzymes
same,tyrosine phosphorylation of 48 kDa protein,[5],transient increase in the level of a phosphotyrosine-containing 48 kDa protein
same,"increase in kinase activities with casein, histone, or BSA as substrate",[6],no increases in kinase activities were detected
C=C1[C@@H](O)[C@@H]2O[C@]3(CC[C@H](/C=C/[C@@H](C)[C@@H]4CC(C)=C[C@@]5(O[C@H](C[C@@](C)(O)C(=O)O)CC[C@H]5O)O4)O3)CC[C@H]2O[C@@H]1[C@@H](O)C[C@H](C)[C@H]1O[C@@]2(CCCCO2)CC[C@H]1C [okadaic acid],inhibition of lesion formation after TMV infection,[7],lesion formation after TMV infection was inhibited
same,blocking of SA-mediated induction of PR-1 gene expression,[8],blocked the SA-mediated induction of PR-1 gene expression
same,prevention of phosphatase inactivation of SIP kinase,[9],could be prevented
"OO [H2 O2, hydrogen peroxide]",activation of p48 SIP kinase by H2O2,[2]; 1 mM and 2 mM,induced several kinase activities including the p48 SIP kinase
same,kinase activity at 60 minutes after addition,[2]; 60 minutes after addition of H2 O2,remained at peak levels
same,duration of SIP kinase activation relative to SA,"[2]; tobacco suspension cells, data not shown for analogues",more sustained compared to that induced by SA
same,weakly induced kinase activity bands at 200 kDa and 75 kDa,[10],weakly induced
same,"activation of other kinases (58, 52, 40 kDa)",[11],induced several kinase activities
same,tyrosine phosphorylation of 48 kDa protein,[5],prolonged phosphorylation of tyrosine residue(s) on a 48 kDa protein
same,number of proteins phosphorylated on tyrosine residues,[12],at least four
"p48 SIP kinase (salicylic acid-induced protein kinase), activated form from SA- or H2O2-treated tobacco cells, in extracts or purified (enzyme)","phosphorylation of MBP, in-solution kinase assay (Km for MBP)",[13],0.19 mg/mL
N[C@@H](Cc1ccc(OP(=O)(O)O)cc1)C(=O)O [phosphotyrosine],inhibition of precipitation of p48 SIP kinase,[14],inhibited precipitation of the p48 SIP kinase
